Several values for one entry are separate records, joined by “and”; a condition that tells them apart may be missing. Equal values may be shown once.
Conditions: Crystal; for vapor or sublimation pressure: Calculated from knudsen effusion weight loss

O=[N+]([O-])c1ccc2[nH]ccc2c1 [5-nitroindole]
Conditions	vapor or sublimation pressure
353.15 K	9.42e-05 kPa and 9.3e-05 kPa
355.2 K	0.0001148 kPa and 0.0001117 kPa
357.18 K	0.0001368 kPa and 0.0001345 kPa and 0.000131 kPa
359.15 K	0.0001667 kPa and 0.0001723 kPa and 0.0001702 kPa
361.19 K	0.0001997 kPa and 0.000201 kPa
363.17 K	0.0002441 kPa and 0.0002364 kPa
365.16 K	0.0003138 kPa and 0.0003041 kPa and 0.0002935 kPa
367.19 K	0.0003798 kPa and 0.0003685 kPa and 0.0003544 kPa
369.17 K	0.0004448 kPa and 0.000439 kPa and 0.0004322 kPa
371.17 K	0.0005523 kPa and 0.0005458 kPa and 0.0005326 kPa
373.19 K	0.0006817 kPa and 0.0006526 kPa and 0.0006311 kPa
375.17 K	0.0008006 kPa and 0.0007692 kPa

O=[N+]([O-])c1ccc2c(c1)CCN2 [5-nitroindoline]
Conditions	mass density [kg/m3]
298.15 K, 101.33 kPa, mass and volume measurement	1390

Conditions	vapor or sublimation pressure
338.09 K	6.24e-05 kPa and 6.06e-05 kPa and 6.3e-05 kPa
340.12 K	7.74e-05 kPa and 7.36e-05 kPa and 7.65e-05 kPa
342.2 K	0.000101 kPa and 9.69e-05 kPa and 9.36e-05 kPa
344.08 K	0.0001236 kPa and 0.0001184 kPa and 0.0001211 kPa
346.1 K	0.0001521 kPa and 0.0001453 kPa and 0.0001435 kPa
348.19 K	0.0001876 kPa and 0.0001782 kPa and 0.0001803 kPa
350.1 K	0.000241 kPa and 0.0002364 kPa and 0.0002307 kPa
352.13 K	0.0002958 kPa and 0.0002905 kPa and 0.0002792 kPa
354.19 K	0.0003738 kPa and 0.0003438 kPa and 0.0003465 kPa
356.1 K	0.0004193 kPa and 0.0004189 kPa and 0.0004131 kPa
358.12 K	0.0005196 kPa and 0.0005153 kPa and 0.0005004 kPa
360.18 K	0.0006675 kPa and 0.0006261 kPa and 0.0006157 kPa

Reference: the NIST ThermoML archive (doi:10.1016/j.jct.2008.09.014)
